This data set concerns the target UBE2T. In words: reporter assay of Huesken 2005. The following applies: siRNA.

Oligonucleotides are written 5' to 3', each unit as a sugar letter and its base; * is a phosphorothioate linkage, no mark a phosphodiester; rarer units and linkages stand in square brackets, end groups in braces. Plain capitals give the bases only. d = 2'-deoxy (DNA); r = 2'-OH (RNA)
Also: test concentration or dose not given here.

As to “sense rArGrGrArArGrArGrArUrGrCrUrUrGrArUrArAdTdT / antisense rUrUrArUrCrArArGrCrArUrCrUrCrUrUrCrCrUdCdA”, the normalised inhibition (eCFP-eYFP dual reporter) is 113%.
As to “sense rCrUrCrCrArArUrUrUrArUrCrArUrCrCrArArAdTdT / antisense rUrUrUrGrGrArUrGrArUrArArArUrUrGrGrArGdTdG”, the normalised inhibition (eCFP-eYFP dual reporter) was determined as 107%.
With “sense rCrArGrArGrUrArCrArCrArArCrUrCrArArCrAdTdT / antisense rUrGrUrUrGrArGrUrUrGrUrGrUrArCrUrCrUrGdGdA”, the normalised inhibition (eCFP-eYFP dual reporter) came to 83%.
The result for “sense rGrCrUrCrArArArUrArUrUrArGrGrUrGrGrArGdTdT / antisense rCrUrCrCrArCrCrUrArArUrArUrUrUrGrArGrCdTdC” reads 87.1%; that for “sense rCrCrCrUrGrArUrGrArCrCrCrGrCrUrCrArUrGdTdT / antisense rCrArUrGrArGrCrGrGrGrUrCrArUrCrArGrGrGdTdT”, 91.2%; that for “sense rUrArUrCrArUrCrCrArArArCrArUrUrGrArUrUdTdT / antisense rArArUrCrArArUrGrUrUrUrGrGrArUrGrArUrAdAdA”, 67.4%.
The result for “sense rCrArGrGrCrArUrCrArCrArUrGrUrUrGrGrCrAdTdT / antisense rUrGrCrCrArArCrArUrGrUrGrArUrGrCrCrUrGdGdG” reads 90.8%.
The result for “sense rArCrArUrArUrCrCrUrCrArGrArArUrUrUrArAdTdT / antisense rUrUrArArArUrUrCrUrGrArGrGrArUrArUrGrUdCdA” reads 114%; that for “sense rUrGrArUrGrArCrCrCrGrCrUrCrArUrGrGrCrUdTdT / antisense rArGrCrCrArUrGrArGrCrGrGrGrUrCrArUrCrAdGdG”, 75.6%; that for “sense rUrGrGrUrGrArCrUrCrCrArGrArGrUrArCrArCdTdT / antisense rGrUrGrUrArCrUrCrUrGrGrArGrUrCrArCrCrAdGdC”, 80.3%.
Regarding “sense rArUrCrUrArCrCrArGrArGrGrCrUrGrGrUrGrAdTdT / antisense rUrCrArCrCrArGrCrCrUrCrUrGrGrUrArGrArUdTdA”, the normalised inhibition (eCFP-eYFP dual reporter) is 97%.
In the case of “sense rUrGrArArCrCrUrCrCrUrCrArGrArUrCrCrGrAdTdT / antisense rUrCrGrGrArUrCrUrGrArGrGrArGrGrUrUrCrAdAdA”, the normalised inhibition (eCFP-eYFP dual reporter) turned out to be 105%.
The result for “sense rGrGrUrGrCrUrUrGrGrArGrArCrCrArUrCrCrCdTdT / antisense rGrGrGrArUrGrGrUrCrUrCrCrArArGrCrArCrCdTdT” reads 80.4%; that for “sense rGrCrUrArGrUrArGrGrCrArUrArGrArArArArGdTdT / antisense rCrUrUrUrUrCrUrArUrGrCrCrUrArCrUrArGrCdTdG”, 106%.
The result for “sense rArArGrGrArUrUrUrGrUrCrUrGrGrArUrGrUrUdTdT / antisense rArArCrArUrCrCrArGrArCrArArArUrCrCrUrUdCdC” reads 79.9%; that for “sense rCrUrUrArUrGrArGrArArArGrGrUrGrUrUrUrUdTdT / antisense rArArArArCrArCrCrUrUrUrCrUrCrArUrArArGdGdT”, 92.5%; that for “sense rGrArCrCrUrGrCrGrArGrCrUrCrArArArUrArUdTdT / antisense rArUrArUrUrUrGrArGrCrUrCrGrCrArGrGrUrCdAdT”, 101%.
Turning to “sense rArArUrGrCrCrArGrArCrArGrUrGrGrArCrArGdTdT / antisense rCrUrGrUrCrCrArCrUrGrUrCrUrGrGrCrArUrUdCdT”, the normalised inhibition (eCFP-eYFP dual reporter) amounted to 77.5%.
The result for “sense rUrGrGrArUrGrUrUrCrUrCrArArArUrUrGrCrCdTdT / antisense rGrGrCrArArUrUrUrGrArGrArArCrArUrCrCrAdGdA” reads 71.9%.
On to “sense rGrCrUrUrGrArUrArArUrCrUrArCrCrArGrArGdTdT / antisense rCrUrCrUrGrGrUrArGrArUrUrArUrCrArArGrCdAdT”, for which the normalised inhibition (eCFP-eYFP dual reporter) turned out to be 101%.
On to “sense rArGrUrArGrGrCrArUrArGrArArArArGrArArAdTdT / antisense rUrUrUrCrUrUrUrUrCrUrArUrGrCrCrUrArCrUdAdG”, for which the normalised inhibition (eCFP-eYFP dual reporter) turned out to be 102%.
The result for “sense rCrCrArArArUrGrGrArUrGrArCrCrUrGrCrGrAdTdT / antisense rUrCrGrCrArGrGrUrCrArUrCrCrArUrUrUrGrGdTdC” reads 95.3%; that for “sense rCrUrUrCrCrUrCrArArGrArArUrGrCrCrArGrAdTdT / antisense rUrCrUrGrGrCrArUrUrCrUrUrGrArGrGrArArGdGdC”, 76%.
The result for “sense rUrUrGrArCrCrUrCrUrArUrUrCrArGrCrUrGrCdTdT / antisense rGrCrArGrCrUrGrArArUrArGrArGrGrUrCrArAdCdA” reads 49.2%; that for “sense rGrCrUrGrArUrGrArGrGrArArGrArGrArUrGrCdTdT / antisense rGrCrArUrCrUrCrUrUrCrCrUrCrArUrCrArGrCdCdT”, 73.8%; that for “sense rUrUrGrArArCrCrUrCrCrUrCrArGrArUrCrCrGdTdT / antisense rCrGrGrArUrCrUrGrArGrGrArGrGrUrUrCrArAdAdT”, 56.5%.
The result for “sense rUrUrArArGrCrUrArGrArArGrUrUrArUrCrArUdTdT / antisense rArUrGrArUrArArCrUrUrCrUrArGrCrUrUrArAdAdA” reads 89.9%; that for “sense rUrCrArArCrArUrCrGrCrArArCrUrGrUrGrUrUdTdT / antisense rArArCrArCrArGrUrUrGrCrGrArUrGrUrUrGrAdGdG”, 103%; that for “sense rCrCrUrGrArUrGrArCrCrCrGrCrUrCrArUrGrGdTdT / antisense rCrCrArUrGrArGrCrGrGrGrUrCrArUrCrArGrGdGdT”, 83.5%.
“sense rGrCrArArCrUrGrUrGrUrUrGrArCrCrUrCrUrAdTdT / antisense rUrArGrArGrGrUrCrArArCrArCrArGrUrUrGrCdGdA”: the normalised inhibition (eCFP-eYFP dual reporter) worked out at 114%.
The result for “sense rGrArArGrGrCrCrArGrUrCrArGrCrUrArGrUrAdTdT / antisense rUrArCrUrArGrCrUrGrArCrUrGrGrCrCrUrUrCdCdT” reads 91.9%; that for “sense rGrUrUrArUrCrArUrUrCrCrUrGrArGrArGrGrUdTdT / antisense rArCrCrUrCrUrCrArGrGrArArUrGrArUrArArCdTdT”, 75.4%; that for “sense rArArGrUrUrArUrCrArUrUrCrCrUrGrArGrArGdTdT / antisense rCrUrCrUrCrArGrGrArArUrGrArUrArArCrUrUdCdT”, 79.4%.
As to “sense rArArCrCrCrArArCrCrCrUrGrArUrGrArCrCrCdTdT / antisense rGrGrGrUrCrArUrCrArGrGrGrUrUrGrGrGrUrUdCdT”, the normalised inhibition (eCFP-eYFP dual reporter) was 52.7%.
The result for “sense rGrGrArArGrGrArUrUrUrGrUrCrUrGrGrArUrGdTdT / antisense rCrArUrCrCrArGrArCrArArArUrCrCrUrUrCrCdAdG” reads 96.1%; that for “sense rArCrArCrArCrCrUrUrArUrGrArGrArArArGrGdTdT / antisense rCrCrUrUrUrCrUrCrArUrArArGrGrUrGrUrGrUdTdG”, 74.7%; that for “sense rUrCrUrArCrCrArGrArGrGrCrUrGrGrUrGrArCdTdT / antisense rGrUrCrArCrCrArGrCrCrUrCrUrGrGrUrArGrAdTdT”, 63.5%.
The result for “sense rCrArUrCrGrCrArArCrUrGrUrGrUrUrGrArCrCdTdT / antisense rGrGrUrCrArArCrArCrArGrUrUrGrCrGrArUrGdTdT” reads 84.8%; that for “sense rArGrCrUrGrCrUrCrArUrGrUrCrArGrArArCrCdTdT / antisense rGrGrUrUrCrUrGrArCrArUrGrArGrCrArGrCrUdGdA”, 79.4%.
Turning to “sense rUrCrUrGrGrArUrGrUrUrCrUrCrArArArUrUrGdTdT / antisense rCrArArUrUrUrGrArGrArArCrArUrCrCrArGrAdCdA”, the normalised inhibition (eCFP-eYFP dual reporter) amounted to 80.8%.
The result for “sense rArUrUrGrCrCrArCrCrArArArArGrGrUrGrCrUdTdT / antisense rArGrCrArCrCrUrUrUrUrGrGrUrGrGrCrArArUdTdT” reads 43.8%.
The result for “sense rUrArUrUrArGrGrUrGrGrArGrCrCrArArCrArCdTdT / antisense rGrUrGrUrUrGrGrCrUrCrCrArCrCrUrArArUrAdTdT” reads 57.4%; that for “sense rCrUrCrArGrArArUrUrUrArArArUrArUrArArUdTdT / antisense rArUrUrArUrArUrUrUrArArArUrUrCrUrGrArGdGdA”, 85.9%; that for “sense rUrGrArUrUrCrUrGrCrUrGrGrArArGrGrArUrUdTdT / antisense rArArUrCrCrUrUrCrCrArGrCrArGrArArUrCrAdAdT”, 95.4%.
The result for “sense rUrGrArGrArGrGrUrArCrCrCrArUrUrUrGrArAdTdT / antisense rUrUrCrArArArUrGrGrGrUrArCrCrUrCrUrCrAdGdG” reads 87.4%; that for “sense rGrArUrUrUrGrUrCrUrGrGrArUrGrUrUrCrUrCdTdT / antisense rGrArGrArArCrArUrCrCrArGrArCrArArArUrCdCdT”, 75%.
Turning to “sense rUrCrArArCrArCrArGrArArArArGrGrArArGrGdTdT / antisense rCrCrUrUrCrCrUrUrUrUrCrUrGrUrGrUrUrGrAdGdT”, the normalised inhibition (eCFP-eYFP dual reporter) is 65.5%.
The result for “sense rCrCrUrGrArGrArGrGrUrArCrCrCrArUrUrUrGdTdT / antisense rCrArArArUrGrGrGrUrArCrCrUrCrUrCrArGrGdAdA” reads 78.5%.
The result for “sense rCrGrArGrCrUrCrArArArUrArUrUrArGrGrUrGdTdT / antisense rCrArCrCrUrArArUrArUrUrUrGrArGrCrUrCrGdCdA” reads 90%.

For the origin of these results see the OligoGym collection.
